Consider 23 compounds from EP3800188A1, “SUBSTITUTED PYRAZOLOPYRIMIDINES AS IRAK4 INHIBITORS” (Bayer AG, priority 2019, dated 2021).

A short description of data set [1]: Metabolic stability in human liver microsomes. The settings on record: 1 µM compound. For orientation: Liver microsomes are a subcellular fraction often used to study metabolism.
The next data set addresses T1, human IRAK4 (Homo sapiens, UniProt Q9NWZ3).
T1 construct: GST (N); made in house; host or cells: baculovirus-infected Hi5 (BTI-TN-5B1-4) insect cells
T1 sequence (Q9NWZ3 1-460): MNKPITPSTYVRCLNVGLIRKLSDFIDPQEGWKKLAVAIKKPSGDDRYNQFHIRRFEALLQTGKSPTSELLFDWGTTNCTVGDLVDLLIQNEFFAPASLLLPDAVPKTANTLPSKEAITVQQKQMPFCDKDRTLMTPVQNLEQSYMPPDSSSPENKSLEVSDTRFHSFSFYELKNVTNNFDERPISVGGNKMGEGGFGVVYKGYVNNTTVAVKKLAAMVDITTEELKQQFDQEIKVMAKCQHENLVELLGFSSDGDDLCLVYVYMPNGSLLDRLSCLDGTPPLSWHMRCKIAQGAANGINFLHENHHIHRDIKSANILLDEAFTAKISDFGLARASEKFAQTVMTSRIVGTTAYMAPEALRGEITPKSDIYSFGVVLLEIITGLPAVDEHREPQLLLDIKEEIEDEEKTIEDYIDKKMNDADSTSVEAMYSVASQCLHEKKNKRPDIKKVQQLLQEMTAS
Put plainly: Human IRAK4 kinase activity inhibition assay (IRAK4 TR-FRET assay). The class given is biochemical. The settings on record: 1 mM ATP, GST-human IRAK4, average or median values. In short, it runs like this: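 GST-IRAK4 from insect cells (about 0.2 nM, linear range) was preincubated 15 min with compound (11 concentrations, 20 µM–0.073 nM) in HEPES pH 7.5 with MgCl2 and DTT before kinase reaction on a biotinylated peptide. Phosphopeptide was detected by TR-FRET (Eu anti-mouse-IgG/anti-phosphoserine/streptavidin-XL665, 1 h at 22°C) as the 665/620 nm ratio, normalized to no-compound and no-enzyme controls.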
In general terms: TR-FRET usually uses a lanthanide donor and a delayed reading to cut background.

One may read the IC50 as the concentration that gives 50% inhibition. Turning to `O=S1(=O)C[C@H](Nc2nc(N3CC(N4CCOCC4)C3)c3cnn(-c4cccc(C(F)(F)F)c4)c3n2)[C@@H](O)C1` (relative stereo) [Example I-37, rel-(3R,4R)-4-({4-[3-(morpholin-4-yl)azetidin-1-yl]-1-[3-(trifluoromethyl)phenyl]-1H-pyrazolo[3,4-d]pyrimidin-6-yl}amino)tetrahydrothiophene-3-ol 1,1-dioxide], in data set [1] (hepatic in vivo blood clearance calculated with well stirred liver model, '(stable)' given beside < 0.01), the “CLblood, human microsomes” value was 0.83 mL/min/kg. Moreover, the “Fmax, human microsomes” value in data set [1] (maximal oral bioavailability calculated with well stirred liver model, 0.5 mg/mL protein, '(stable)' given beside 100) was 97%. The compound further had an IC50 on human IRAK4 of 0.0115 µM. `C[C@]1(O)CCN(c2nc(N[C@H]3C[C@@H](O)C3)nc3c2cnn3-c2cccc(C(F)(F)F)c2)C1` [Example I-124, (3S)-1-(6-{[(1s,3R)-3-hydroxycyclobutyl]amino}-1-[3-(trifluoromethyl)phenyl]-1H-pyrazolo[3,4-d]pyrimidin-4-yl)-3-methylpyrrolidin-3-ol] registered a concentration for half-maximal inhibition (IC50) against human IRAK4 of 0.0225 µM.

In the case of `CCC1(O)CN(c2nc(N[C@H]3CCN(C)C3)nc3c2cnn3-c2cccc(S(C)(=O)=O)c2)C1` [Example V-1, 3-ethyl-1-(6-{[(3S)-1-methylpyrrolidin-3-yl]amino}-1-[3-(methylsulfonyl)phenyl]-1H-pyrazolo[3,4-d]pyrimidin-4-yl)azetidin-3-ol], on human IRAK4, it took 0.17 µM to reach half-maximal inhibition (IC50). Still for that read-out and setting: in the case of `CCC1(O)CN(c2nc(N[C@@H]3CCOC3)nc3c2cnn3-c2cccc(S(C)(=O)=O)c2)C1` [Example V-2, 3-ethyl-1-{1-[3-(methylsulfonyl)phenyl]-6-[(3R)-tetrahydrofuran-3-ylamino]-1H-pyrazolo[3,4-d]pyrimidin-4-yl}azetidin-3-ol] it was 0.179 µM; in that of `O=S1(=O)CC[C@H](Nc2nc(N3CC(N4CCOCC4)C3)c3cnn(-c4cccc(C(F)F)c4)c3n2)C1` [II-3, 1-[3-(difluoromethyl)phenyl]-N-[(3S)-1,1-dioxidotetrahydrothiophen-3-yl]-4-[3-(morpholin-4-yl)azetidin-1-yl]-1H-pyrazolo[3,4-d]pyrimidin-6-amine], 0.0248 µM.

For the compound `O=C(O)CC1CN(c2nc(NC3CCS(=O)(=O)CC3)nc3c2cnn3-c2cccc(C(F)F)c2)C1` [II-9, (1-{1-[3-(difluoromethyl)phenyl]-6-[(1,1-dioxidotetrahydro-2H-thiopyran-4-yl)amino]-1H-pyrazolo[3,4-d]pyrimidin-4-yl}azetidin-3-yl)acetic acid], on human IRAK4, half-maximal inhibition (IC50) required 0.0849 µM. Compared with the last compound, the IC50 is about 3.4-fold higher. On the same count and under the same terms, the figure for `CS(=O)(=O)N1CC(Nc2nc(N3CC(N4CCOCC4)C3)c3cnn(-c4cccc(C(F)F)c4)c3n2)C1` [II-13, 1-[3-(difluoromethyl)phenyl]-N-[1-(methylsulfonyl)azetidin-3-yl]-4-[3-(morpholin-4-yl)azetidin-1-yl]-1H-pyrazolo[3,4-d]pyrimidin-6-amine] is 0.0133 µM. Still for that read-out and setting: in the case of `O=S1(=O)CCC(Nc2nc(N3CCC(O)(C(F)(F)F)C3)c3cnn(-c4cccc(C(F)F)c4)c3n2)CC1` (stereo not shown) [II-15, 1-{1-[3-(difluoromethyl)phenyl]-6-[(1,1-dioxidotetrahydro-2H-thiopyran-4-yl)amino]-1H-pyrazolo[3,4-d]pyrimidin-4-yl}-3-(trifluoromethyl)pyrrolidin-3-ol] it was 0.0452 µM. Compound `CS(=O)(=O)N1CC(Nc2nc(N3C[C@H](O)[C@@H](F)C3)c3cnn(-c4cccc(C(F)F)c4)c3n2)C1` [II-22, (3S,4S)-1-(1-[3-(difluoromethyl)phenyl]-6-{[1-(methylsulfonyl)azetidin-3-yl]amino}-1H-pyrazolo[3,4-d]pyrimidin-4-yl)-4-fluoropyrrolidin-3-ol] displayed an IC50 on human IRAK4 of 0.0453 µM.

On human IRAK4, `CS(=O)(=O)N1CC(Nc2nc(N3C[C@@H](O)[C@H](F)C3)c3cnn(-c4cccc(C(F)F)c4)c3n2)C1` [II-23, (3R,4R)-1-(1-[3-(difluoromethyl)phenyl]-6-{[1-(methylsulfonyl)azetidin-3-yl]amino}-1H-pyrazolo[3,4-d]pyrimidin-4-yl)-4-fluoropyrrolidin-3-ol] displayed an IC50 of 0.0162 µM. This IC50 is about 2.8-fold lower than that of the compound before. The same measure, in the same setting: the figure for `O[C@H]1C[C@H](Nc2nc(N3CC(N4CCOCC4)C3)c3cnn(-c4cccc(C(F)F)c4)c3n2)C1` [II-25, trans-3-({1-[3-(difluoromethyl)phenyl]-4-[3-(morpholin-4-yl)azetidin-1-yl]-1H-pyrazolo-[3,4-d]pyrimidin-6-yl}amino)cyclobutanol] is 0.00615 µM; for `CC(C)(C(=O)O)C1CN(c2nc(NC3CCS(=O)(=O)CC3)nc3c2cnn3-c2cccc(C(F)F)c2)C1` [II-26, 2-(1-{1-[3-(difluoromethyl)phenyl]-6-[(1,1-dioxidotetrahydro-2H-thiopyran-4-yl)amino]-1H-pyrazolo[3,4-d]pyrimidin-4-yl}azetidin-3-yl)-2-methylpropanoic acid] it is 0.0736 µM. The same measure, in the same setting: the figure for `CCS(=O)(=O)N1CC(Nc2nc(N3CC(CC(C)(C)O)C3)c3cnn(-c4cccc(C(F)F)c4)c3n2)C1` [II-28, 1-[1-(1-[3-(difluoromethyl)phenyl]-6-{[1-(ethylsulfonyl)azetidin-3-yl]amino}-1H-pyrazolo[3,4-d]pyrimidin-4-yl)azetidin-3-yl]-2-methylpropan-2-ol] is 0.04 µM. The same measure, in the same setting: the figure for `C[C@@]1(O)CCN(c2nc(NC3CN(S(C)(=O)=O)C3)nc3c2cnn3-c2cccc(C(F)F)c2)C1` [II-29, (3R)-1-(1-[3-(difluoromethyl)phenyl]-6-{[1-(methylsulfonyl)azetidin-3-yl]amino}-1H-pyrazolo[3,4-d]pyrimidin-4-yl)-3-methylpyrrolidin-3-ol] is 0.0671 µM; for `CC(C)(O)C1CCN(c2nc(NC3CN(S(=O)(=O)C4CC4)C3)nc3c2cnn3-c2cccc(C(F)F)c2)CC1` [II-30, 2-[1-(6-{[1-(cyclopropylsulfonyl)azetidin-3-yl]amino}-1-[3-(difluoromethyl)phenyl]-1H-pyrazolo[3,4-d]pyrimidin-4-yl)piperidin-4-yl]propan-2-ol] it is 0.0162 µM.

In turn, `CCS(=O)(=O)N1CC(Nc2nc(N3CC(N4CCOCC4)C3)c3cnn(-c4cccc(C(F)F)c4)c3n2)C1` [II-32, 1-[3-(difluoromethyl)phenyl]-N-[1-(ethylsulfonyl)azetidin-3-yl]-4-[3-(morpholin-4-yl)azetidin-1-yl]-1H-pyrazolo[3,4-d]pyrimidin-6-amine] gave an IC50 against human IRAK4 of 0.0567 µM. Consider `O[C@@H]1CCN(c2nc(N[C@H]3C[C@H](O)C3)nc3c2cnn3-c2cccc(C(F)F)c2)C1` [II-33, (3R)-1-(1-[3-(difluoromethyl)phenyl]-6-{[(1r,3R)-3-hydroxycyclobutyl]amino}-1H-pyrazolo[3,4-d]pyrimidin-4-yl)pyrrolidin-3-ol], for which, on human IRAK4, the IC50 turned out to be 0.0165 µM.

For the compound `CC(C)(O)CC1CN(c2nc(N[C@H]3C[C@@]4(CCN4)C3)nc3c2cnn3-c2cccc(C(F)F)c2)C1` [II-36, 1-(1-{6-[(4r,6s)-1-azaspiro[3.3]heptan-6-ylamino]-1-[3-(difluoromethyl)phenyl]-1H-pyrazolo[3,4-d]pyrimidin-4-yl}azetidin-3-yl)-2-methylpropan-2-ol], at human IRAK4, half-maximal inhibition (IC50) was put at 0.00276 µM.

For `CC(C)(O)C1CCN(c2nc(N[C@@H]3CNC(=O)C3)nc3c2cnn3-c2cccc(OC(F)(F)F)c2)CC1` [III-1, (4S)-4-({4-[4-(2-hydroxypropan-2-yl)piperidin-1-yl]-1-[3-(trifluoromethoxy)phenyl]-1H-pyrazolo[3,4-d]pyrimidin-6-yl}amino)pyrrolidin-2-one], 0.0191 µM corresponded to half-maximal inhibition against human IRAK4 (IC50).

As to `CS(=O)(=O)[C@H]1C[C@H](Nc2nc(N3C[C@H](O)[C@@H](F)C3)c3cnn(-c4cccc(OC(F)F)c4)c3n2)C1` [IV-5, (3S,4S)-1-(1-[3-(difluoromethoxy)phenyl]-6-{[trans-3-(methylsulfonyl)cyclobutyl]amino}-1H-pyrazolo[3,4-d]pyrimidin-4-yl)-4-fluoropyrrolidin-3-ol], on human IRAK4, the IC50 came out at 0.0112 µM. This IC50 lies about 1.7-fold lower than the previous one. On the same count and under the same terms, in the case of `CS(=O)(=O)N1CC(Nc2nc(N3C[C@H](O)[C@@H](F)C3)c3cnn(-c4cccc(OC(F)F)c4)c3n2)C1` [IV-6, (3S,4S)-1-(1-[3-(difluoromethoxy)phenyl]-6-{[1-(methylsulfonyl)azetidin-3-yl]amino}-1H-pyrazolo[3,4-d]pyrimidin-4-yl)-4-fluoropyrrolidin-3-ol] it was 0.193 µM. On human IRAK4, `O=S1(=O)CCC(Nc2nc(N3C[C@H](O)[C@@H](F)C3)c3cnn(-c4cccc(OC(F)F)c4)c3n2)CC1` [IV-7, (3S,4S)-1-{1-[3-(difluoromethoxy)phenyl]-6-[(1,1-dioxidotetrahydro-2H-thiopyran-4-yl)amino]-1H-pyrazolo[3,4-d]pyrimidin-4-yl}-4-fluoropyrrolidin-3-ol] showed an IC50 of 0.0464 µM. Turning to `CN1CC[C@H](Nc2nc(N3CCC(C(C)(C)O)CC3)c3cnn(-c4cccc(C(C)(C)O)c4)c3n2)C1` [VI-1, 2-[1-(1-[3-(2-hydroxypropan-2-yl)phenyl]-6-{[(3S)-1-methylpyrrolidin-3-yl]amino}-1H-pyrazolo[3,4-d]pyrimidin-4-yl)piperidin-4-yl]propan-2-ol], inhibition against human IRAK4 was half-maximal at 0.0773 µM (IC50). This IC50 lies about 1.7-fold higher than the previous one.
